Patent US9957253B2, “Triaminopyrimidine compounds useful for preventing or treating malaria” (MMV MEDICINES FOR MALARIA VENTURE, priority 2014, dated 2018)
Counter-ions that a name gives are not always drawn. Like-named read-outs stand apart in the source and are kept apart here.

Experiments:
human CYP 1A2 = molecular target: T1, human CYP 1A2 (Homo sapiens, UniProt P05177); test: Time dependent CYP inhibition assay, CYP 1A2; type: in vitro ADME
T1 sequence (P05177 1-516): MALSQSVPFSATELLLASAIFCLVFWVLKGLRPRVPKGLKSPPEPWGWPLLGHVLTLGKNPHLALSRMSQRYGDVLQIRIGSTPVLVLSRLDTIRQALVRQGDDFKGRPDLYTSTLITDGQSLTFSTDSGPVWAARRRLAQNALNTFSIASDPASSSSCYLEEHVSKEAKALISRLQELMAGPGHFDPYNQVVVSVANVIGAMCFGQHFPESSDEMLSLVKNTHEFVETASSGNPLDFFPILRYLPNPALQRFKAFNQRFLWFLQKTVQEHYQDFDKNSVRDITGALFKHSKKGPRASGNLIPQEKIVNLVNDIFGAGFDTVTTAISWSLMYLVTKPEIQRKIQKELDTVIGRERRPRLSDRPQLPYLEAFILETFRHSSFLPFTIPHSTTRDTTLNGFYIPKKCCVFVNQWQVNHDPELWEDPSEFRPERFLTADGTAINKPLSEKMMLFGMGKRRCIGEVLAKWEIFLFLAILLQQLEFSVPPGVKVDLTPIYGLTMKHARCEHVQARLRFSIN

[1] = Plasma protein binding assay (equilibrium dialysis), human; type: in vitro ADME
Experimental: (§1) Plasma Protein Binding Assay
(§2) Protein binding is measured using the equilibrium dialysis technique. Compound is added to 10% plasma giving a concentration of 20 μM and dialysed with isotonic buffer for 18 hours at 37° C. The plasma and buffer solutions are analysed using generic LCUVMS and the first apparent binding constant for the compound derived. The binding constant is then used to determine the % free in 100% plasma.

[2] = tested on: chloroquine sensitive NF54 strain of P. falciparum; test: In vitro antiplasmodial activity (SYBR I), NF54 strain; type: cell-based, Plasmodium falciparum; settings: Plasmodium falciparum
Experimental: Measuring In Vitro Antiplasmodial Activity
The test samples were tested in duplicate on two separate occasions against chloroquine sensitive NF54 (MRA-1000, MR4, ATCC, Manassas, Va.) and chloroquine-resistant K1 strains of P. falciparum. A modified method of Trager and Jensen was employed to maintain continuous in vitro cultures of asexual blood stages of P. falciparum (Trageret al., 1976, Science, 193, 673-675). Quantitative assessment of antiplasmodial activity in vitro was determined using the SYBR I method as described earlier (Johnson et al., 2007, Antimicrob. Agents Chemother., 51, 1926-1933).
The percent inhibition with respect to the drug-free control was plotted against the logarithm of drug concentration. The growth inhibition curves were fitted by nonlinear regression using the sigmoidal dose-response (variable slope) formula to yield the concentration-response curves. […] Chloroquine diphosphate (CQ) (Sigma), artesunate (Sigma), and pyrimethamine were used as reference drugs in all experiments.

[3] = Pharmacokinetic studies (IVPK/POPK) in male Wistar rats; type: in vivo; settings: Rat; for Oral ‘F’ / ½ life (PO PK): 5 mg/kg Examples 7 and 10, 10 mg/kg Example 13; for clearance / Vd: male, Wistar, IV bolus, 0.5 mg/kg Examples 7 and 10, 2 mg/kg Example 13; for clearance: read-out: CL blood; for Vd: read-out: Vss blood
Experimental: All in vivo studies were approved by the institutional animal ethics committee. Pharmacokinetics following IV bolus (IVPK) or oral administration (POPK) of compounds was determined in male Wistar rats or male Beagle dogs. For IVPK in rats, Example 7 and Example 10 were administered as solutions in 20% DMA, 80% phosphate-buffered saline and Example 13 was administered as a solution in 10% v/v NMP, 20% v/v DMA in saline. For POPK, Example 7 and Example 10 were administered as suspensions in 20% DMA, 80% phosphate buffered saline and Example 13 was administered as a suspension in 0.5% HPMC and 0.1% Tween 80 through an oral gavage. Example 13 was administered to dogs as a solution in 10% Ethanol, 30% PEG 400, 60% saline for IVPK and as a suspension in 0.5% HPMC, and 0.1% Tween 80 for POPK. Doses used for rat and dog PK were 0.5 mg/kg for Examples 7 and 10 or 2 mg/kg for Example 13 (IVPK). Doses of 5 mg/kg for Examples 7 and 10 were used during POPK. Doses of 10 mg/kg were used for Example 13 during POPK studies. Blood samples were collected at 8 to 13 time points (0, 0.0833, 0.25, 0.283, 0.333, 0.417, 0.75, 1.25, 3.25, 6.25, 12.25, 24.25 h for dog IVPK; 0, 0.25, 0.5, 1, 1.5, 2, 3, 4, 8, 12, 24, 32, 48 h for dog POPK; 0.083, 0.25, 0.5, 1, 2, 4, 7, 24 h for rat IVPK; 0.25, 1, 3, 6, 12, 24, 36, 48 h for rat POPK) after dosing. Blood (rat) or plasma (dog) samples were analysed by LC-MS/MS. PK parameters were estimated by non-compartmental analysis in Phoenix®.

human CYP 2C19 = molecular target: T2, human CYP 2C19 (Homo sapiens, UniProt P33261); test: CYP inhibition assay, CYP 2C19; type: in vitro ADME
T2 construct: Mixture of 180 μL of 20 mg/mL HLM and 90 μL of substrate cocktail solution; from tissue; host or cells: human liver microsomes (HLM)
Experimental: This study was conducted using specific substrates for 5 major human CYP isozymes. These substrates were used as a cocktail (phenacetin, diclofenac, S-mephenytoin, bufuralol and midazolam which are predominantly metabolised by CYP 1A2, 2C9, 2C19, 2D6 and 3A4/5, respectively) at concentrations equivalent to their respective Km values. LC-MS-MS (MRM mode) was used to follow the formation of the CYP specific metabolites. A decrease in the formation of the metabolites in peak area to vehicle control was used to calculate the IC50 value. […] Test compound was used at 6 different concentrations ([…]) to estimate IC50.
The incubation was carried out in 96 deep well plates. Mixture of 180 μL of 20 mg/mL HLM and 90 μL of substrate cocktail solution was added to 15840 μL of phosphate buffer and 179 μL of this mixture was mixed with 1 μL of the test compound, inhibitor cocktail solution or vehicle in each well. The final concentration of DMSO:ACN in the assay mix was 0.3:0.7% v/v. The incubation plate was placed into the water bath and pre-warmed at 37° C. for 5 min before the reactions were started by the addition of 20 μL of 10 mmol/L NADPH solution in phosphate buffer. After the addition of NADPH, the incubation plate was incubated at 37° C. for a further 5 min. The reaction was quenched by the addition of 1 volume (200 μL) of cold ACN containing 3% formic acid and 40 nmol/L verapamil. The plates were kept on ice for 20 min and then centrifuged at 4000 rpm for 30 min to precipitate protein. The supernatant 180 μL was transferred to the analysis plate for LC/MS/MS analysis.

[4] = Plasma protein binding assay (equilibrium dialysis), rat; type: in vitro ADME
Experimental: as §1, §2

[5] = NF54 strain, chloroquine sensitive, read-out: Pf IC50—NF54
[6] = human liver microsomes, substrate cocktail, read-out: IC50 CYP 2C19

T2 sequence (P33261 whole entry): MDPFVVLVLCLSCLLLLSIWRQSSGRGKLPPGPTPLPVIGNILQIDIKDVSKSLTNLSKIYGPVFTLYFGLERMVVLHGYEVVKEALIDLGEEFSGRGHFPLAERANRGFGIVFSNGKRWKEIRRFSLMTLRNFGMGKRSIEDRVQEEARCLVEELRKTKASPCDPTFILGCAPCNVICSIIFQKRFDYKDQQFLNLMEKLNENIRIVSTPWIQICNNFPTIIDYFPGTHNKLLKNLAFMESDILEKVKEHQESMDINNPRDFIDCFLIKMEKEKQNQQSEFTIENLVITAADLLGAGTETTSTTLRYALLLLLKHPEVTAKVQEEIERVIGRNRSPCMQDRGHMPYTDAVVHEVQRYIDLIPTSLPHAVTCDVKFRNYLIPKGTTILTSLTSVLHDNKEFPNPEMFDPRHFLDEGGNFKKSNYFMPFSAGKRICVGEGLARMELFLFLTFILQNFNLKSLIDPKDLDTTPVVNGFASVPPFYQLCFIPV

Structure (SMILES) | IC50 (human CYP 1A2) [µM] | Fup [1] | IC50 ([2]; NF54, read-out: Pf IC50—NF54) [µM] | Oral ‘F’ [3] [%] | ½ life (PO PK) [3] [h] | clearance ([3]; in vivo) [mL/min/kg] | Vd ([3]; in vivo) [L/kg] | IC50 (human CYP 2C19) [µM] | Fup [4] | IC50 [2, 5] [µM] | clearance ([3]; blood) [mL/min/kg] | Vd ([3]; blood) [L/kg] | IC50 (human CYP 2C19; [6]) [µM]
CCc1cc(Nc2ncc(N3CCN[C@H](C)C3)c(Nc3cc(C)n(C)n3)n2)nc(C)c1F [Example 7, (R)—N4-(1,5-dimethyl-1H-pyrazol-3-yl)-N2-(4-ethyl-5-fluoro-6-methylpyridin-2-yl)-5-(3-methylpiperazin-1-yl)pyrimidine-2,4-diamine dihydrochloride] | > 56 | 0.03 | 0.027 | 31 | 10 | 26.6 | 12 | > 30 | 0.06 | – | – | – | –
Cc1nc(Nc2ncc(N3CCN[C@H](C)C3)c(Nc3cnn(C)n3)n2)cc(C2CC2)c1Cl [Example 10, (R)—N2-(5-chloro-4-cyclopropyl-6-methylpyridin-2-yl)-N4-(2-methyl-2H-1,2,3-triazol-4-yl)-5-(3-methylpiperazin-1-yl)pyrimidine-2,4-diamine dihydochloride] | > 56 | 0.04 | – | 17 | 30 | – | – | – | 0.04 | 0.013 | 22.5 | 9.7 | > 30
Cc1nc(Nc2ncc(N3CCN(C)[C@H](C)C3)c(Nc3cc(C)n(C)n3)n2)cc(C2CC2)c1F [Example 13, (R)—N2-(4-cyclopropyl-5-fluoro-6-methylpyridin-2-yl)-N4-(1,5-dimethyl-1H-pyrazol-3-yl)-5-(3,4-dimethylpiperazin-1-yl)pyrimidine-2,4-diamine] | > 56 | 0.03 | – | 80 | 10 | – | – | – | 0.04 | 0.009 | 9.8 | 7.9 | > 30
